How the values were obtained:
[1] = tested on: hedgehog pathway in HT29 cells; experiment: Semi-quantitative RT-PCR of Hedgehog pathway genes; assay type: cell-based, human; settings: data not shown
Protocol: Total RNA from cell lines or tissue samples was isolated using Qiagen RNeasy Mini Kit (Valencia, Calif.). RT-PCR was performed in GeneAmp PCR system 2700 (Applied Biosystems, Foster City, Calif.) using One-step RT-PCR Kit from Invitrogen Life Technologies (Carlsbad, Calif.). Primers for RT-PCR were obtained from Operon Technologies Inc. (Alameda, Calif.). Primer sequences for amplifying different genes in Hedgehog and Wnt signaling pathways are listed in the table below (Table 1; F, forward primer; R, reverse primer). The expected size of the PCR product is indicated for each primer pair. GAPDH was used as internal control.

[2] = tested on: human gastric cancer cell lines NUGC3, MNK28, and AGS; experiment: Cell survival assay (crystal violet); assay type: cell-based; settings: for cell killing: 50 μM
Protocol: Typically, the small molecule compounds of the present invention were dissolved in DMSO at a concentration of 30 mM. The small molecule compounds were then tested under cell culture conditions at different concentrations ranging from 0, 10, 30, 50, to 100 uM. To determine cell survival after treatment, the cells were incubated with the small molecule compounds in 6-well plates for about 3 days. After removal of the cell culture medium, 1-ml of 0.5% crystal violet solution (prepared in 20% ethanol and 20% methanol) was added to stain the cells for 5 min. Then the crystal violet solution was rinsed clean with tap water. Cell survival was estimated based on the density of crystal stained plates.
The cell-based cytotoxicity assay described herein was used to determine the effect of small molecule compounds FN1-5 and FN1-8 in the human gastric cancer cell lines NUGC3, MNK28, and AGS. Viability of these cells was analyzed after treatment with 10, 30 and 50 μM FN1-5 or FN1-8.

[3] = tested on: human Wnt2 promoter in NSCLC cell line A549; experiment: Wnt2 promoter-luciferase reporter assay; assay type: cell-based; settings: for Wnt2 promoter activity: A549, 30 μM, 18-24 hours
Protocol: (§1) One day before transfection, cells (1×10^5) were plated in 12-well plates with growth medium without antibiotics. When cells reached 80-90% of confluence they were co-transfected using 0.5 μg of each promoter construct in pGL3Basic vector and 0.025 μg pRL-TK Vector (Promega; Madison, Wis.) containing Renilla Luciferase as an internal control for the transformation efficiency. Lipofectamine 2000™ (Invitrogen Life Technologies) was used to mediate transfection for about 6 hours. Then the medium was replaced with fresh medium containing various small molecule compounds at a concentration of 30 μM, and the resulting cells were cultured for an additional 18-24 hours and subjected to luciferase assay. Briefly, cells were lysed in a lysis buffer and Firefly and Renilla Luciferase activities in cells of each well, were measured using Dual-Luciferase Assay System (Promega) and an illuminometer. The measured luciferase activities were normalized to pRL-TK Vector activity and were given relative to the basal activity of empty pGL3-Basic Vector, which was set to unity. The data shown represent mean values (±S.D.). All measurements were performed in triplicate and repeated in at least three independent experiments. The human Wnt-2 promoter-luciferase construct, the human SOCS3 promoter-Luciferase construct and the human Gremlin promoter-luciferase construct were cloned and characterized in the laboratory of Dr. Jablons at the University of California, San Francisco (San Francisco, Calif.; He et al., Biochem Biophy Res Comm, 2003; and unpublished data). The 6GLI-TKO-luciferase construct (containing 6 repeats of consensus GLI DNA binding sequence) was kindly provided by Dr. Matthias Hebrok's laboratory at the University of California, San Francisco (San Francisco, Calif.).
To examine the specificity of the small molecule compounds of the invention, the compounds were tested for regulate the expression of Gli down-stream target genes. […] The human Wnt2 promoter was cloned and found to contain putative Gli-DNA binding sites within its promoter region (data not shown). […]

[4] = tested on: Tcf-mediated gene transcription (canonical Wnt signaling) in colon cancer cell line SW480; experiment: TOPFLASH (TOP/FOP) assay; assay type: cell-based, human
Protocol: Cells were plated in 12-well plates. The TOPFLASH or FOPFLASH reporter plasmid (Upstate; Charlottesville, Va.) was transfected transiently into cells as described above. Tcf-mediated gene transcription was determined by the ratio of pTOPFLASH:pFOPFLASH luciferase activity, each was normalized to luciferase activities of the pRL-TK reporter (co-transfected internal control). All experiments were performed in triplicate, and repeated three times.
Regulation of TOP/FOP activity by the same compounds as described above was also analyzed in the colon cancer cell line SW480.

[5] = tested on: GLI1- and GLI2-induced transcription in Panc4.21 pancreatic cancer cells; experiment: 6xGLI BS-luciferase reporter assay; assay type: cell-based, human; settings: for 6xGLI BS-luciferase activity (TAFII31 co-transfected with GLI1 or GLI2): Panc4.21, 20 μM for 16-20 hours; for 6xGLI BS-luciferase activity (GLI1- or GLI2-induced): Panc4.21, 20 μM, 16-20 hours
Protocol: as §1, with “Then the medium was replaced with fresh medium containing various small molecule compounds at a concentration of 30 μM, and the resulting cells were cultured for an additional 18-24 hours and subjected to luciferase assay.” left out
To further examine the specificity of the small molecule compounds FN1-5 and FN1-8 to inhibit Hh/Gli signaling pathways, GLI-dependent transcription in the absence and presence of these compounds was also determined in pancreatic cancer cells.
This finding also provides a method for inhibiting GLI1- and GLI2-dependent transcription in a cell.
The TAFII31 expression plasmid contained the full-length TAFII31 cDNA generated by PCR cloned into the EcoRI (5′) and BamHI (3′) sites of a mammalian expression vector containing a c-Myc tag (pCDNA3.1 (−)B. The sequence of TAFII31 corresponds to GenBank Accession No. U25112.

## O=C(NCCc1ccc(O)cc1)C1C(c2ccccc2)=NN(c2ccccc2)C1c1ccccc1 (centres unmarked) [FN1-8, N-(2-(4-Hydroxyphenyl)ethyl)-1,3,5-triphenyl-4,5-dihydro-pyrazole-4-carboxyamide]
[1]
  modulation of hedgehog pathway (RT-PCR): no noticeable changes
[2]
  cell killing potency compared with FN1-5: more potent
  cell killing: dramatic cell killing
[3]
  Wnt2 promoter activity: down-regulate Wnt2 promoter activity dramatically
[3]; after FN1-8 treatment, data not shown
  Wnt2 expression (Wnt2 promoter-luciferase reporter activity assay): down-regulated
[4]
  reduction of TOP/FOP activity: about 32%
[5]
  6xGLI BS-luciferase activity (TAFII31 co-transfected with GLI1 or GLI2): significantly reduced
  6xGLI BS-luciferase activity (GLI1- or GLI2-induced): significantly reduced level of luciferase activity

## O=C(NCCCCCO)C1C(c2ccccc2)=NN(c2ccccc2)C1c1ccccc1 (centres unmarked) [FN1-5, N-(5-Hydroxypentyl)-1,3,5-triphenyl-4,5-dihydro-pyrazole-4-carboxyamide]
[1]
  modulation of hedgehog pathway (RT-PCR): no noticeable changes
[2]
  cell killing: dramatic cell killing
[3]
  Wnt2 promoter activity: down-regulate Wnt2 promoter activity dramatically
[4]
  TOP/FOP activity: lesser effect
[5]
  6xGLI BS-luciferase activity (TAFII31 co-transfected with GLI1 or GLI2): significantly reduced
  6xGLI BS-luciferase activity (GLI1- or GLI2-induced): significantly reduced level of luciferase activity

— patent publication US7714014B2, “Targeting GLI proteins in human cancer by small molecules” (The Regents of the University of California, priority 2005, dated 2010)
